In ChEMBL document CHEMBL1141684, “Synthesis and evaluation of cis-3,4-disubstituted piperidines as potent CC chemokine receptor 2 (CCR2) antagonists” (Bioorg Med Chem Lett, 2008):

What was measured:
[1] = molecular target: T1, C-C chemokine receptor type 2 (Homo sapiens, UniProt P41597); experiment: Displacement of radiolabeled MCP1 from CCR2 in human PBMC by millipore filter plate assay
Target sequence in this assay (P41597 whole entry): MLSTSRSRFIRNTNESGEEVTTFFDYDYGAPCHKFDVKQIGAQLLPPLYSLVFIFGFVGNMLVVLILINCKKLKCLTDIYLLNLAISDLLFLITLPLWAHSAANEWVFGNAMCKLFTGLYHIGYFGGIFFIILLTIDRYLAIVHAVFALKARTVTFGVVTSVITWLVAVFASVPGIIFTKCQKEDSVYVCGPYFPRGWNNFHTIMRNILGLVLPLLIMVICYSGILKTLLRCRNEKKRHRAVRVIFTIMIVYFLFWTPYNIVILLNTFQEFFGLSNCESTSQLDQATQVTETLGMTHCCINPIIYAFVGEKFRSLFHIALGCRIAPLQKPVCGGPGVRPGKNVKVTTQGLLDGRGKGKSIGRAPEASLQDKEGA

[2] = molecular target: T1, C-C chemokine receptor type 2; experiment: Antagonist activity at CCR2 in human PBMC assessed as MCP1-induced calcium flux by fluorescence-imaging plate assay; type: functional
Target sequence in this assay (P41597 whole entry): as above

[3] = molecular target: T2, C-C chemokine receptor type 3 (Homo sapiens) (UniProt P51677); experiment: Inhibition of CCR3 at 10 uM
T2 sequence (whole entry): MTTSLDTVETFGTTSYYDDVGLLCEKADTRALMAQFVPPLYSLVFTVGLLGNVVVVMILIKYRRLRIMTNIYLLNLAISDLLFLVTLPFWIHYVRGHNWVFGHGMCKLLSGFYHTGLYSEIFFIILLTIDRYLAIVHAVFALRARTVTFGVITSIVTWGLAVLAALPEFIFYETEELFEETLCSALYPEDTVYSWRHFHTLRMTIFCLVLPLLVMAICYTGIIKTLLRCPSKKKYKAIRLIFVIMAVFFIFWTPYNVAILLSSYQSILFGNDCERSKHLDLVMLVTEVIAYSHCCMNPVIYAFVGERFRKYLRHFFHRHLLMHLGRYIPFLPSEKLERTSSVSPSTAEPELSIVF

[4] = molecular target: T1, C-C chemokine receptor type 2; experiment: Binding affinity to wild type CCR2
Target sequence in this assay (P41597 whole entry): as the sequence (P41597 whole entry) above

[5] = molecular target: C-C chemokine receptor type 2 (Homo sapiens, UniProt P41597, E291A); experiment: Binding affinity to CCR2 E291A mutant
Chain of C-C chemokine receptor type 2 (Homo sapiens, UniProt P41597, E291A) (P41597 whole entry E291A): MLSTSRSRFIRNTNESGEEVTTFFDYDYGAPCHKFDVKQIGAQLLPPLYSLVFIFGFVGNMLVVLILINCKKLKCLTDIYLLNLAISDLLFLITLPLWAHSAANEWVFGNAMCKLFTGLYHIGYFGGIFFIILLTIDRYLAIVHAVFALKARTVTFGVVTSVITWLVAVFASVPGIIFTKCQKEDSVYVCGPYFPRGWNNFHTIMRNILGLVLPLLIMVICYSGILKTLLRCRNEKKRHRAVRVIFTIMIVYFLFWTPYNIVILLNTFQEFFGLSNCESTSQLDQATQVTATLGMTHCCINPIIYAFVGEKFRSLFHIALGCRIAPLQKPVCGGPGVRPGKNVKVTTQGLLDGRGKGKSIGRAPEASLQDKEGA

[6] = molecular target: T1, C-C chemokine receptor type 2; experiment: Displacement of radiolabeled MCP1 from CCR2 in human PBMC at 1 uM by millipore filter plate assay
Target sequence in this assay (P41597 whole entry, looked up): as the sequence (P41597 whole entry) above

IC50 [1] [nM]	IC50 [2] [nM]	inhibition [3] [%]	IC50 [4] [nM]	IC50 [5] [nM]	Activity [6] [%]	SMILES
123	–	–	–	–	–	CCSc1ccc(CNC2CCNCC2NC(=O)CNC(=O)c2cc(C(F)(F)F)ccc2N)cc1 (racemic)
3.4	2	47	–	–	–	CCCN1CCC(NCc2ccc(SC)cc2)C(NC(=O)CNC(=O)c2cc(C(F)(F)F)ccc2N)C1 (racemic)
6.1	3	49.3	–	–	–	CCCN1CCC(NCc2ccc(SC)cc2)C(NC(=O)CNC(=O)c2cc(N)cc(C(F)(F)F)c2)C1 (racemic)
6.3	7	47.3	6.1	749	–	CSc1ccc(CNC2CCNCC2NC(=O)CNC(=O)c2cc(C(F)(F)F)ccc2N)cc1 (racemic)
1.8	2	43.1	–	–	–	CSc1ccc(C(=O)NC2CCN(C)CC2NC(=O)CNC(=O)c2cc(C(F)(F)F)ccc2N)cc1 (racemic)
3.8	3	5.5	–	–	–	CCCN1CCC(NCc2ccc(SC)cc2)C(NC(=O)CNC(=O)c2cc(C(F)(F)F)ccc2NC(=O)NC)C1 (racemic)
28	75	19.7	12	381	–	CSc1ccc(C(=O)NC2CCNCC2NC(=O)CNC(=O)c2cc(C(F)(F)F)ccc2N)cc1 (racemic)
463	–	–	–	–	–	CSc1ccc(CNC2CCN(C(C)=O)CC2NC(=O)CNC(=O)c2cccc(C(F)(F)F)c2)cc1 (racemic)
–	–	–	–	–	0	CSc1ccc(C(=O)NC2CCN(C(=O)OC(C)(C)C)CC2NC(=O)CNC(=O)c2cc(C(F)(F)F)ccc2NC(=O)OC(C)(C)C)cc1 (racemic)
–	–	–	–	–	0	CSc1ccc(CNC2CCN(C(=O)OC(C)(C)C)CC2NC(=O)CNC(=O)c2cccc(C(F)(F)F)c2)cc1 (racemic)
4.3	13	77	–	–	–	CCCCN1CCC(NC(=O)c2ccc(SC)cc2)C(NC(=O)CNC(=O)c2cc(C(F)(F)F)ccc2N)C1 (racemic)
7.9	13	75	–	–	–	CCCCN1CCC(NCc2ccc(SC)cc2)C(NC(=O)CNC(=O)c2cc(C(F)(F)F)ccc2N)C1 (racemic)
0.95	5	56	–	–	–	CSc1ccc(CNC2CCN(C)CC2NC(=O)CNC(=O)c2cc(C(F)(F)F)ccc2N)cc1 (racemic)
21.5	19	90	–	–	–	Nc1ccc(C(F)(F)F)cc1C(=O)NCC(=O)NC1CNCCC1NCc1ccc(Cl)cc1 (racemic)
8.7	21	38.2	–	–	–	CCCN1CCC(NCc2ccc(SC)cc2)C(NC(=O)CNC(=O)c2cc(C(F)(F)F)ccc2NC(=O)N2CCCC2)C1 (racemic)
6.2	6	–	–	–	–	CCCN1CCC(NC(=O)c2ccc(SC)cc2)C(NC(=O)CNC(=O)c2cc(N)cc(C(F)(F)F)c2)C1 (racemic)
97	510	46	–	–	–	CSc1ccc(CNC2CCNCC2NC(=O)CNC(=O)c2cccc(C(F)(F)F)c2)cc1 (racemic)
1180	–	–	–	–	–	CSc1ccc(CNC2CCCCC2NC(=O)CNC(=O)c2cc(C(F)(F)F)ccc2N)cc1 (racemic)
